pIC50, pKi: −log10 of the molar value.
How the values were obtained:
[1] = DRUGMATRIX: Calcium Channel Type L, Dihydropyridine radioligand binding (ligand: [3H] Nitrendipine); assay type: cell membranes, Rattus norvegicus, Wistar, Cerebral cortex, Membrane; conditions: Not Active = under 50% inhibition at 10 µM
[2] = target: T1, C-C chemokine receptor type 4 (Homo sapiens, UniProt P51679); assay type: cell membranes, Membrane; conditions: chem-1; also: in other assays of this panel Not Active means under 50% inhibition at 10 µM
T1 sequence (P51679 whole entry): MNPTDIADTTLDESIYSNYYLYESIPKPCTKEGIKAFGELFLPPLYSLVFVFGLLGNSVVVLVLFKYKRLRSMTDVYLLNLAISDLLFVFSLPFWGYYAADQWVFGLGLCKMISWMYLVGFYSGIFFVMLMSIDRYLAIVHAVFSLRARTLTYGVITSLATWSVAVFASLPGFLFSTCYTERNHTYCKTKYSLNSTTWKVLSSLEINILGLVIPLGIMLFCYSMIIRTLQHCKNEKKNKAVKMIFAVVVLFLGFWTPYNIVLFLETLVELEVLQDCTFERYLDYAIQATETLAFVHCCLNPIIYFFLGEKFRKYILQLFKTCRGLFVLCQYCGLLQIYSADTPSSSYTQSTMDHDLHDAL

[3] = DRUGMATRIX: Glutamate, NMDA, Phencyclidine radioligand binding (ligand: [3H] TCP); assay type: cell membranes, Rattus norvegicus, Wistar, Cerebral cortex, Membrane; conditions: Not Active = under 50% inhibition at 10 µM
Melanocortin receptor 4 = Melanocortin receptor 4 (Homo sapiens, UniProt P32245); assay type: cell membranes, Membrane; conditions: hek293; also: in other assays of this panel Not Active means under 50% inhibition at 10 µM
[4] = target: T2, Angiotensin-converting enzyme (Oryctolagus cuniculus, UniProt P12822); assay type: tissue-based, Lung;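 also: enzymatic inhibition of angiotensin-converting enzyme measured with FAPGG as the substrate; in other assays of this panel Not Active means under 50% inhibition at 10 µM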
T2 sequence (P12822 whole entry): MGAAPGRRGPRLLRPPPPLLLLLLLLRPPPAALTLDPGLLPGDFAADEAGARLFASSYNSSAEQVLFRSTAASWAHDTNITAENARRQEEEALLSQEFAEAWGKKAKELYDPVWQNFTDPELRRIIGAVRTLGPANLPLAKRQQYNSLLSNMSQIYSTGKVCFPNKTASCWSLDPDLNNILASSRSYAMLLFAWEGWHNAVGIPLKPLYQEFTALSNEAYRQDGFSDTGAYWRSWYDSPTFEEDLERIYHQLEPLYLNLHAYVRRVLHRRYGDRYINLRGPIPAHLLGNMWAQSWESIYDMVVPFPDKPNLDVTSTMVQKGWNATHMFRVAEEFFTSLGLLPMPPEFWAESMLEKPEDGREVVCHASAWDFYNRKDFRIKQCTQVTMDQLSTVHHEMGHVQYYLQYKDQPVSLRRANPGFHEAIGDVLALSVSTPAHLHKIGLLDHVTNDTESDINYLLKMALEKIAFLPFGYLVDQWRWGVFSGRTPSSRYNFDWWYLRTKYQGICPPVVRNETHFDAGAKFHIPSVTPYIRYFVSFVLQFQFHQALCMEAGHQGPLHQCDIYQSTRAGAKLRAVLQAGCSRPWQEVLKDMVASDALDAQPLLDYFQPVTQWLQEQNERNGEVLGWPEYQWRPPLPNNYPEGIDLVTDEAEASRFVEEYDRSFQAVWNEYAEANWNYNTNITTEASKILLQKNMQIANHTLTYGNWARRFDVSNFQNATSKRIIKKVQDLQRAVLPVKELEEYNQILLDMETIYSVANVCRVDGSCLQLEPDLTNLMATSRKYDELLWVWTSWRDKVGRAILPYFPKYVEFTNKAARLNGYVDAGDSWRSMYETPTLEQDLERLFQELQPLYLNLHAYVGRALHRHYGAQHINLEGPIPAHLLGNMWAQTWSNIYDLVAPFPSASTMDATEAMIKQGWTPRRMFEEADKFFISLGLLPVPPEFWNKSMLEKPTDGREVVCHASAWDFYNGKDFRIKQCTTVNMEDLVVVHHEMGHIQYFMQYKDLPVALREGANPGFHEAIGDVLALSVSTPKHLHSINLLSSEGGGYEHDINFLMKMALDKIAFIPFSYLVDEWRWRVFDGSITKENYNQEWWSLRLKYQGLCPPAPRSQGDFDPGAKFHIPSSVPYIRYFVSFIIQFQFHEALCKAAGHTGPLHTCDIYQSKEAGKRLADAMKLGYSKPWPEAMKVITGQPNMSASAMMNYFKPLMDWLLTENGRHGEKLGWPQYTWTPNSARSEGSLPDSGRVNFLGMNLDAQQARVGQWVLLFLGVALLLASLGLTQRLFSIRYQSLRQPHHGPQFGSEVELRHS

[5] = target: Mitogen-activated protein kinase 3 (Homo sapiens, UniProt P27361); test: DRUGMATRIX: Protein Serine/Threonine Kinase, ERK1 enzyme inhibition (substrate: Myelin Basic Protein); set-up: species or system Escherichia coli; conditions: Not Active = under 50% inhibition at 10 µM
Mitogen-activated protein kinase 3, sequence (P27361 whole entry): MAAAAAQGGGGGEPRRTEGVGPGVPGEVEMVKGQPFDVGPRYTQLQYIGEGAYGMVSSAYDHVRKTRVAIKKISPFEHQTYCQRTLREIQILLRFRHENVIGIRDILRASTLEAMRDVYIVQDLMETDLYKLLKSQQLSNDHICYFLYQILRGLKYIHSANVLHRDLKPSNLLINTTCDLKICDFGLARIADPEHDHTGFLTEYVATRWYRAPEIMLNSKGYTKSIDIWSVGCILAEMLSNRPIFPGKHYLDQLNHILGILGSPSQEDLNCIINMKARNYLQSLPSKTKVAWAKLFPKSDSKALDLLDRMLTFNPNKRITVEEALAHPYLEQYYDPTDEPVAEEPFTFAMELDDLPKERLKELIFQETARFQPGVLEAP

Melanocortin receptor 4, sequence (P32245 whole entry): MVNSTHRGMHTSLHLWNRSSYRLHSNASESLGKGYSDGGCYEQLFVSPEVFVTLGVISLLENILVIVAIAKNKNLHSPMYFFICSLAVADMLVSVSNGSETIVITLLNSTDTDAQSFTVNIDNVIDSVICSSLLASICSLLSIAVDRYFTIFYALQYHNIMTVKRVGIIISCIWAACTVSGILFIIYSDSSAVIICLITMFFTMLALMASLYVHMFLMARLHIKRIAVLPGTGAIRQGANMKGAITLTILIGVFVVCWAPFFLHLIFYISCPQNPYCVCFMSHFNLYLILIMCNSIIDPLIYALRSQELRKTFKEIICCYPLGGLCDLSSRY

| Compound | IC50 [1] | Ki [1] | IC50 [2] | IC50 [3] | Ki [3] | IC50 (Melanocortin receptor 4) | IC50 [4] | IC50 [5] | Ki [2] | Ki (Melanocortin receptor 4) | Ki [4] | Ki [5] | pIC50 ([1]; read-out: IC50) | pKi ([1]; read-out: Ki) | pIC50 ([5]; read-out: IC50) |
| --- | --- | --- | --- | --- | --- | --- | --- | --- | --- | --- | --- | --- | --- | --- | --- |
| CC(C)(C(=O)O)c1ccc(C(O)CCCN2CCC(C(O)(c3ccccc3)c3ccccc3)CC2)cc1 (configuration not stated) [FEXOFENADINE] | Not Active | Not Active | Not Active | Not Active | Not Active | Not Active | Not Active | Not Active | – | – | – | – | – | – | – |
| CC(O)(P(=O)(O)O)P(=O)(O)O [ETIDRONIC ACID] | Not Active | Not Active | Not Active | Not Active | Not Active | Not Active | Not Active | Not Active | – | – | – | – | – | – | – |
| CCOC(=O)c1ncn2c1CN(C)C(=O)c1cc(F)ccc1-2 [FLUMAZENIL] | Not Active | Not Active | Not Active | Not Active | Not Active | Not Active | Not Active | Not Active | – | – | – | – | – | – | – |
| NNCCc1ccccc1 [PHENELZINE] | Not Active | Not Active | Not Active | Not Active | Not Active | Not Active | Not Active | Not Active | – | – | – | – | – | – | – |
| COc1ccc2c(c1OC)C(=O)O[C@@H]2[C@H]1c2c(cc3c(c2OC)OCO3)CCN1C [NOSCAPINE] | Not Active | Not Active | Not Active | Not Active | Not Active | Not Active | Not Active | Not Active | – | – | – | – | – | – | – |
| COBALTOUS CHLORIDE | Not Active | Not Active | Not Active | Not Active | Not Active | Not Active | Not Active | Not Active | Not Active | Not Active | Not Active | Not Active | – | – | – |
| CC(=O)Oc1ccccc1C(=O)O [ASPIRIN] | Not Active | Not Active | Not Active | Not Active | Not Active | Not Active | Not Active | Not Active | – | – | – | – | – | – | – |
| CCN(CC)CCNC(=O)c1ccc(N)cc1 [PROCAINAMIDE] | Not Active | Not Active | Not Active | Not Active | Not Active | Not Active | Not Active | Not Active | – | – | – | – | – | – | – |
| Cc1c(O)cccc1C(=O)N[C@@H](CSc1ccccc1)[C@H](O)CN1C[C@H]2CCCC[C@H]2C[C@H]1C(=O)NC(C)(C)C | – | – | Not Active | Not Active | Not Active | Not Active | Not Active | – | – | – | – | – | 5.01 | 5.20 | 4.65 |
| Cc1cccc(C)c1NC(=O)C1CCCCN1C (configuration not stated) [MEPIVACAINE] | Not Active | Not Active | Not Active | Not Active | Not Active | Not Active | Not Active | Not Active | – | – | – | – | – | – | – |
| O=c1[nH]c(=O)n([C@H]2C[C@H](O)[C@@H](CO)O2)cc1F [FLOXURIDINE] | Not Active | Not Active | Not Active | Not Active | Not Active | Not Active | Not Active | Not Active | – | – | – | – | – | – | – |
| O=C(O)CC(O)(CC(=O)O)C(=O)O [CITRIC ACID] | Not Active | Not Active | Not Active | Not Active | Not Active | Not Active | Not Active | Not Active | – | – | – | – | – | – | – |
| Cc1cc(O)cc(C)c1Cl [CHLOROXYLENOL] | Not Active | Not Active | Not Active | Not Active | Not Active | Not Active | Not Active | Not Active | – | – | – | – | – | – | – |
| O=C(O)CCCc1cccs1 | Not Active | Not Active | Not Active | Not Active | Not Active | Not Active | Not Active | Not Active | – | – | – | – | – | – | – |
| CCCNC(=O)NS(=O)(=O)c1ccc(Cl)cc1 [CHLORPROPAMIDE] | Not Active | Not Active | Not Active | Not Active | Not Active | Not Active | Not Active | Not Active | – | – | – | – | – | – | – |
| CC(=O)OC[C@H]1O[C@@H](n2ncc(=O)[nH]c2=O)[C@H](OC(C)=O)[C@@H]1OC(C)=O [AZARIBINE] | Not Active | Not Active | Not Active | Not Active | Not Active | Not Active | Not Active | Not Active | – | – | – | – | – | – | – |
| NCCCNCCSP(=O)(O)O [AMIFOSTINE] | Not Active | Not Active | Not Active | Not Active | Not Active | Not Active | Not Active | Not Active | – | – | – | – | – | – | – |
| CC(C)(C)NCC(O)COc1cccc2c1CC(O)C(O)C2 (configuration not stated) [NADOLOL] | Not Active | Not Active | Not Active | Not Active | Not Active | Not Active | Not Active | Not Active | – | – | – | – | – | – | – |
| C[C@H]1COc2c(N3CCN(C)CC3)c(F)cc3c(=O)c(C(=O)O)cn1c23.C[C@H]1COc2c(N3CCN(C)CC3)c(F)cc3c(=O)c(C(=O)O)cn1c23.O [LEVOFLOXACIN] | Not Active | Not Active | Not Active | Not Active | Not Active | Not Active | Not Active | Not Active | – | – | – | – | – | – | – |
| COc1ccnc(C[S+]([O-])c2nc3ccc(OC(F)F)cc3[nH]2)c1OC (configuration not stated) [PANTOPRAZOLE] | Not Active | Not Active | Not Active | Not Active | Not Active | Not Active | Not Active | Not Active | – | – | – | – | – | – | – |
| CCCCC1=NC2(CCCC2)C(=O)N1Cc1ccc(-c2ccccc2-c2nnn[nH]2)cc1 [IRBESARTAN] | Not Active | Not Active | Not Active | Not Active | Not Active | Not Active | Not Active | Not Active | – | – | – | – | – | – | – |
| COC(=O)Nc1nc2cc(C(=O)c3ccc(F)cc3)ccc2[nH]1 [FLUBENDAZOLE] | Not Active | Not Active | Not Active | Not Active | Not Active | Not Active | Not Active | Not Active | – | – | – | – | – | – | – |
| CN(C)CCC=C1c2ccccc2CCc2ccccc21 [AMITRIPTYLINE] | Not Active | Not Active | Not Active | Not Active | Not Active | Not Active | Not Active | Not Active | – | – | – | – | – | – | – |
| Cc1ccc(C)c(OCCCC(C)(C)C(=O)O)c1 [GEMFIBROZIL] | Not Active | Not Active | Not Active | Not Active | Not Active | Not Active | Not Active | Not Active | – | – | – | – | – | – | – |
| C[N+](C)(C)C[C@H](O)CC(=O)[O-] [LEVOCARNITINE] | Not Active | Not Active | Not Active | Not Active | Not Active | Not Active | Not Active | Not Active | – | – | – | – | – | – | – |
| CNC1=Nc2ccc(Cl)cc2C(c2ccccc2)=[N+]([O-])C1 [CHLORDIAZEPOXIDE] | Not Active | Not Active | Not Active | Not Active | Not Active | Not Active | Not Active | Not Active | – | – | – | – | – | – | – |

From ChEMBL document CHEMBL1909046, “DrugMatrix in vitro pharmacology data”
